{"source": "patent US11918624B2", "about": "“Therapeutic composition for use in the treatment of COVID-19 and other cytokine storm associated disorders” (priority 2020, dated 2024)", "key": {"guinea pig complement": {"tested_on": "guinea pig complement", "experiment": "antibody dependent complement mediated hemolysis assay", "assay_type": "biochemical", "conditions": "1 ug/mL peptide added to guinea pig complement, titrated against turkey erythrocytes with hemolysin", "experimental": "The peptides were synthesized by Fmoc solid phase method, purified on C18 reversa phase chromatography, tested by adding each peptide to and screened for complement inhibitory activity, in a simple antibody dependent hemolysis system in which 1 ug/mL of peptides were added to guinea pig complement, and were titrated against turkey erythrocytes mixed with hemolysin, a complement fixing anti-erythrocyte antibody solution. In the presence the peptides, the hemolythic activity of the complement was reduced, and the corresponding dilutions was determined. The inhibition was estimated by a formula: Inhibition (%)=100−(dilution of sample titer*100)/dilution of control"}, "C5a receptor": {"molecular_target": "T1, C5a receptor (Homo sapiens, UniProt P21730)", "T1 construct": "U937 cells bearing the C5a receptor were preincubated with this peptide; endogenous in cells; host or cells: U937 cells, cAMP stimulated", "T1 sequence (P21730 1-350)": "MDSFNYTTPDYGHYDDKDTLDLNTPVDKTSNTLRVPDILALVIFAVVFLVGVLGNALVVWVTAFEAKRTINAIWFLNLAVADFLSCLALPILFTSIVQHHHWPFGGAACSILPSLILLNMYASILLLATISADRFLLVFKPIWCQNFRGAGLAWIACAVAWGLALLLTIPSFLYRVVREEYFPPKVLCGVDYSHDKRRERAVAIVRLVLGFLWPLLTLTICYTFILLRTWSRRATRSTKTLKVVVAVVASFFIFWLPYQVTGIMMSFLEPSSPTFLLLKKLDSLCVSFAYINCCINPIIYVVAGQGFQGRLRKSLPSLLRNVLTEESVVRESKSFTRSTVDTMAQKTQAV", "experiment": "C5a-induced Ca++ influx in C5a receptor-expressing U937 cells", "assay_type": "cell-based", "experimental": "It was shown by its ability to inhibit Ca^++ influx induced by C5a anaphylatoxin in C5a receptor-expressing (cAMP stimulated) U937 cells.\n(§1) Particularly, it is shown the IC50 achieved at pM levels. […] In addition, in the membrane bound state the peptide remains active for at least 12 hours. Therefore, it is a very effective C5aR inhibitor."}, "C5aR": {"molecular_target": "T2, C5aR (Homo sapiens, UniProt P21730)", "T2 construct": "endogenous in cells; host or cells: 'C5aR bearing cells', not specified", "T2 sequence (P21730 1-350)": "T1 sequence (P21730 1-350)", "experiment": "persistence of activity of erythrocyte membrane bound peptide", "conditions": "erythrocyte membrane bound state", "experimental": "The activity in vivo, in rat and pig models, is shown in the examples below. Further, it has been shown that the peptide can be delivered in vivo very safely, even at very high concentration. […] In addition, in the membrane bound state, the peptide remains active for at least 12 hours. Therefore, it is a very effective C5aR inhibitor.\nas §1"}, "endothelin receptor": {"molecular_target": "T3, endothelin receptor (Canis lupus familiaris, UniProt Q5KSU9)", "T3 construct": "from tissue; host or cells: whole animal (dog), in vivo", "T3 sequence (Q5KSU9 21-426)": "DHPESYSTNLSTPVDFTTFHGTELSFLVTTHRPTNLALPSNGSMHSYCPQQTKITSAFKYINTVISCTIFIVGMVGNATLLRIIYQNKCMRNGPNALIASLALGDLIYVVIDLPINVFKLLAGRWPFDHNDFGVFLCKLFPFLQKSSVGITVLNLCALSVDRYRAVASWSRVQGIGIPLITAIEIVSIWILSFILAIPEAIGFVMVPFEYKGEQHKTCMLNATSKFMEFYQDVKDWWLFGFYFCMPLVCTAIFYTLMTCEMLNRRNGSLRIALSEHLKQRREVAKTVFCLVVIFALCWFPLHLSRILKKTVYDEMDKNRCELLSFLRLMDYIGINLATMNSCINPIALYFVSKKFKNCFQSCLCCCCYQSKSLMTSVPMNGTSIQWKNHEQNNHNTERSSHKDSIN", "experiment": "iv ET-1 injection in dogs pretreated with peptide", "assay_type": "in vivo", "experimental": "One of the peptides was subsequently tested in dogs and confirmed its biological effect in vivo. […] The elevated ET-1 level was marked with profound changes in circulation (details to be published elsewhere). However, pretreatment of dogs with 100 ug/kg ETR-P1/fl peptide removed the cardiovascular effects of injected ET-1 peptide from the circulation within 10 min and the measured endothelin level become normal. […] It is known in the previous art and has been patented and the patent expired."}, "C5a anaphylatoxin": {"tested_on": "C5a anaphylatoxin", "experiment": "binding of AHB peptide to antisense peptides derived from C5a", "conditions": "C5a amino acids 37-43 and 61-74"}}, "note": "Ends that are not written are not given here."}
{"substance": "DDLKQLANGVDRYI [DDL1619, DDLKQLANGVDRYI]", "values": [{"measurement": "Hemolysis inhibition (% of maximum)", "setting": "guinea pig complement", "result": ">80", "unit": "%"}]}
{"substance": "LRTWSRRATRSTKTLKVV (Complement factor 5a receptor targeting inhibitor LRT2463) [PR226]", "values": [{"measurement": "biphasic activity on C5a receptor", "setting": "C5a receptor", "result": "inhibitor at high concentration and activator as low concentration"}]}
{"substance": "TAYVVKVFSLAVN [TAY1409, TAYVVKVFSLAVN]", "values": [{"measurement": "Hemolysis inhibition (% of maximum)", "setting": "guinea pig complement", "result": "≤20", "unit": "%"}]}
{"substance": "LTAYVVKVFSLA [LTA1309, LTAYVVKVFSLA]", "values": [{"measurement": "Hemolysis inhibition (% of maximum)", "setting": "guinea pig complement", "result": ">80", "unit": "%"}]}
{"substance": "ERLGREGVQ [ERL1041, ERLGREGVQ]", "values": [{"measurement": "Hemolysis inhibition (% of maximum)", "setting": "guinea pig complement", "result": ">20-40%"}]}
{"substance": "NIFLKDSITTWE [NIF1464, NIFLKDSITTWE]", "values": [{"measurement": "Hemolysis inhibition (% of maximum)", "setting": "guinea pig complement", "result": ">40-60%"}]}
{"substance": "IAVHYLDETEQW [IAV1501, IAVHYLDETEQW]", "values": [{"measurement": "Hemolysis inhibition (% of maximum)", "setting": "guinea pig complement", "result": "≤20", "unit": "%"}]}
{"substance": "SDAGLTFTSS [SDA984, SDAGLTFTSS]", "values": [{"measurement": "Hemolysis inhibition (% of maximum)", "setting": "guinea pig complement", "result": ">80", "unit": "%"}]}
{"substance": "SDKKGICVADPFEVT [SDK1606, SDKKGICVADPFEVT]", "values": [{"measurement": "Hemolysis inhibition (% of maximum)", "setting": "guinea pig complement", "result": ">80", "unit": "%"}]}
{"substance": "LHLSVRTLELRP [LHL1431, LHLSVRTLELRP]", "values": [{"measurement": "Hemolysis inhibition (% of maximum)", "setting": "guinea pig complement", "result": ">40-60%"}]}
{"substance": "QKKIEEIAAKYKHS (PL3-AHB peptide derived from C5a anaphylatoxin)", "values": [{"measurement": "inhibition of C5a receptor activity / C5a-induced Ca++ influx", "setting": "C5a receptor", "result": "not able to inhibit"}]}
{"substance": "(LRTWSRRATRSTKTLKVV)8K4K2KV [PR226MAP]", "values": [{"measurement": "time the peptide remains active", "setting": "C5aR", "result": "at least 12 hours"}, {"measurement": "concentration of complete inhibition of C5a triggered Ca influx", "setting": "C5a receptor; FIG. 2", "result": 200, "unit": "pM"}, {"measurement": "concentration level at which C5a triggered Ca influx is inhibited", "setting": "C5a receptor; serial dilution", "result": "femtomolar concentration levels"}, {"measurement": "IC50", "setting": "C5a receptor; serial dilution, FIG. 2, read-out: IC50 of C5a triggered Ca influx", "result": 1, "unit": "pM"}]}
{"substance": "LRLPYVVREQL [LRL1384, LRLPYVVREQL]", "values": [{"measurement": "Hemolysis inhibition (% of maximum)", "setting": "guinea pig complement", "result": "≤20", "unit": "%"}]}
{"substance": "ESASLRSEETKV [ESA1331, ESASLRSEETKV]", "values": [{"measurement": "Hemolysis inhibition (% of maximum)", "setting": "guinea pig complement", "result": ">20-40%"}]}
{"substance": "RAARISLGPRSIKAFTE (PL37-AHB peptide derived from C5a anaphylatoxin)", "values": [{"measurement": "inhibition of C5a receptor activity / C5a-induced Ca++ influx", "setting": "C5a receptor", "result": "not able to inhibit"}]}
{"substance": "KYKHSVVKKSDGA (PL12-AHB peptide derived from C5a anaphylatoxin)", "values": [{"measurement": "inhibition of C5a receptor activity / C5a-induced Ca++ influx", "setting": "C5a receptor", "result": "not able to inhibit"}]}
{"substance": "LSRKVLLDGV [LSR1099, LSRKVLLDGV]", "values": [{"measurement": "Hemolysis inhibition (% of maximum)", "setting": "guinea pig complement", "result": ">20-40%"}]}
{"substance": "LNLCALSVDRYRAVASWSRVI (Endothelin A receptor targeting inhibitor LNL2390) [ETR-P1/fl]", "values": [{"measurement": "measured endothelin level after injected ET-1", "setting": "endothelin receptor; dogs, pretreatment 100 ug/kg", "result": "become normal"}, {"measurement": "time to removal of cardiovascular effects of injected ET-1", "setting": "endothelin receptor; dogs, pretreatment 100 ug/kg, iv ET-1", "result": "≤ 10", "unit": "min"}, {"measurement": "decrease of normal baseline level of ET peptide in plasma", "setting": "endothelin receptor; dogs, transient", "result": "30-50%"}, {"measurement": "increase of ET-1 binding capacity of the endothelin receptor", "setting": "endothelin receptor; receptor frozen in inactive conformation", "result": 4, "unit": "times"}]}
{"substance": "LNCQRYYGGGGYST [LNC1538, LNCQRYYGGGGYST]", "values": [{"measurement": "Hemolysis inhibition (% of maximum)", "setting": "guinea pig complement", "result": ">20-40%"}]}
{"substance": "HWPFGGAACSILPSLI (Complement factor 5a receptor targeting inhibitor HWP1667) [PR101]", "values": [{"measurement": "inhibition of C5a receptor activity / C5a-induced Ca++ influx", "setting": "C5a receptor", "result": "did not affect the C5a-induced Ca^++ influx"}]}
{"substance": "LRANISHKDMQLGR (PL61-AHB peptide derived from C5a anaphylatoxin)", "values": [{"measurement": "inhibition of C5a receptor activity / C5a-induced Ca++ influx", "setting": "C5a receptor", "result": "not able to inhibit"}]}
{"substance": "GQWKIRAYYENS [GQW1513, GQWKIRAYYENS]", "values": [{"measurement": "Hemolysis inhibition (% of maximum)", "setting": "guinea pig complement", "result": "≤20", "unit": "%"}]}
{"substance": "QALPYSTVGNSNL [QAL1363, QALPYSTVGNSNL]", "values": [{"measurement": "Hemolysis inhibition (% of maximum)", "setting": "guinea pig complement", "result": ">40-60%"}]}
{"substance": "QRSYTVAIA [QRS1008, QRSYTVAIA]", "values": [{"measurement": "Hemolysis inhibition (% of maximum)", "setting": "guinea pig complement", "result": ">40-60%"}]}
{"substance": "KRPQDAKNT [KRP1057, KRPQDAKNT]", "values": [{"measurement": "Hemolysis inhibition (% of maximum)", "setting": "guinea pig complement", "result": ">20-40%"}]}
{"substance": "VQAERSGIPIVTSPYQI [VQA1857, VQAERSGIPIVTSPYQI]", "values": [{"measurement": "Hemolysis inhibition (% of maximum)", "setting": "guinea pig complement", "result": ">80", "unit": "%"}]}
{"substance": "DYGHYDDKDTLDLNTPVD (Complement factor 5a receptor targeting inhibitor DYG2094) [PR10]", "values": [{"measurement": "binding to antisense peptides derived from C5a anaphylatoxin", "setting": "C5a anaphylatoxin", "result": "bound to two of its corresponding antisense peptides"}, {"measurement": "inhibition of C5a receptor activity / C5a-induced Ca++ influx", "setting": "C5a receptor", "result": "did not inhibit the receptor activity"}]}
{"substance": "APNHLLEVRV [AP1314, APNHLLEVRV]", "values": [{"measurement": "Hemolysis inhibition (% of maximum)", "setting": "guinea pig complement", "result": ">80", "unit": "%"}]}
